Test results: paper PMC3914206

Columns and labels:
Format in all cases: binding
Conditions in all cases: Compound Concentration 10 µM
panel of 442 kinases [1] = biological target: T1, panel of 442 kinases (Homo sapiens, UniProt P00533, DEL752-759)
T1 construct: purchased KINOMEscan
Source text: (§1) We assessed the selectivity of members of this scaffold using the KINOMEscan methodology across a near comprehensive panel of 442 kinases [[18,27]].

panel of 442 kinases [2] = biological target: T2, panel of 442 kinases (Homo sapiens, UniProt Q9P2K8, S808G)
T2 construct: purchased KINOMEscan
Source text: as §1

panel of 442 kinases [3] = biological target: T3, panel of 442 kinases (Homo sapiens, UniProt P45985)
T3 construct: purchased KINOMEscan
T3 sequence (P45985 1-399): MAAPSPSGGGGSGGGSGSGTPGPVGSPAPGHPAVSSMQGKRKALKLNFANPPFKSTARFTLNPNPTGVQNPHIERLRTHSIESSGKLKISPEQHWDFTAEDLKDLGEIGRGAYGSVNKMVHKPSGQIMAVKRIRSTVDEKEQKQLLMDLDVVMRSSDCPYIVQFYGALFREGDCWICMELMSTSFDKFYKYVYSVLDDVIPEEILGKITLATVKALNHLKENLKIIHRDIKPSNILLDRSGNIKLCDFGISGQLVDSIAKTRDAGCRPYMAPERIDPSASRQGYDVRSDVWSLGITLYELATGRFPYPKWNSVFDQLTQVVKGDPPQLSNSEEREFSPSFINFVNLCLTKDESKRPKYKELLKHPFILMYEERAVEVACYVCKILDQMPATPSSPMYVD
Source text: as §1

T2 sequence (Q9P2K8 whole entry S808G): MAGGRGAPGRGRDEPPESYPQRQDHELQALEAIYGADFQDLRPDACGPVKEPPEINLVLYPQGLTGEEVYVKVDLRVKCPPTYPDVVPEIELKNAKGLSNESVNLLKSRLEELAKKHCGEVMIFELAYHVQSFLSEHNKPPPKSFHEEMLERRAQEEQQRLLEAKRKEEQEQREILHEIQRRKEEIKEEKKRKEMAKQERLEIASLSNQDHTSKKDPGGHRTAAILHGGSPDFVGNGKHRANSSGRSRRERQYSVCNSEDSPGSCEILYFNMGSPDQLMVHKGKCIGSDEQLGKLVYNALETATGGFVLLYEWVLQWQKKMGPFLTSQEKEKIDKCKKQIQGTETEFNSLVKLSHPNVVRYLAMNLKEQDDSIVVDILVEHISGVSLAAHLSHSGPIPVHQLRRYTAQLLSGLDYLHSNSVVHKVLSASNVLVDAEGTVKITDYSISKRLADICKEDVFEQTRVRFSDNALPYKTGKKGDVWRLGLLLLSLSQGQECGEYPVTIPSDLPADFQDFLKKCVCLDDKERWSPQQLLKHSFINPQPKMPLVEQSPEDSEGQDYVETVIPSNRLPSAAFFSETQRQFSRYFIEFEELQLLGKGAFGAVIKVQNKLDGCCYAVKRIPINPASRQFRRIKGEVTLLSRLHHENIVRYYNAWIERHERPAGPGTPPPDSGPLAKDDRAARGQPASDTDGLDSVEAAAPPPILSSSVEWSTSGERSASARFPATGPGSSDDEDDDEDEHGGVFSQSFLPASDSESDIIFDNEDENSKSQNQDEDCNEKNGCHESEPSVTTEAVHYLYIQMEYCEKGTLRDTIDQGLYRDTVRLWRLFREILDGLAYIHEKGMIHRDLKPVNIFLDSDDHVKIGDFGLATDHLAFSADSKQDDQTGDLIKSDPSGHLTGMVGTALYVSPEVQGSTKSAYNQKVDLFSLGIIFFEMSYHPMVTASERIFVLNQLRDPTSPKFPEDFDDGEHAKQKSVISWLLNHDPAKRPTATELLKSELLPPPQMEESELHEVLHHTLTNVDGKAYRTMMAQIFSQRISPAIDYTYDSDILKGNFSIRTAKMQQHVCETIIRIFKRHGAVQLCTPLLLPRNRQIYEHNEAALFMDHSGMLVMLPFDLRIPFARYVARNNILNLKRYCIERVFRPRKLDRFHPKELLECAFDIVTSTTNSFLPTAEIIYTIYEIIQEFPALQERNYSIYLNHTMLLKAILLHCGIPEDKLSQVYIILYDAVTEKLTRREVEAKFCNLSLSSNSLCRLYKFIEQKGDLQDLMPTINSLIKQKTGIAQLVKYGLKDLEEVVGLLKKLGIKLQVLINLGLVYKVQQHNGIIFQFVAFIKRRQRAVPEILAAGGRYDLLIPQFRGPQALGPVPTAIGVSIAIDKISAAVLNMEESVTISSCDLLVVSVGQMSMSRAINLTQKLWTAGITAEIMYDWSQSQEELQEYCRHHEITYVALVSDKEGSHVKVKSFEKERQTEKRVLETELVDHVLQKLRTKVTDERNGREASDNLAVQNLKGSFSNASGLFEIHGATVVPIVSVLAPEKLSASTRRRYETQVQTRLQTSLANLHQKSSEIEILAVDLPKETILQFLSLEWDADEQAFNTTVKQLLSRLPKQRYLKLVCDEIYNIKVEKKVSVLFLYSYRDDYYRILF
T1 sequence (P00533 with tags, fused parts or gaps DEL752-759): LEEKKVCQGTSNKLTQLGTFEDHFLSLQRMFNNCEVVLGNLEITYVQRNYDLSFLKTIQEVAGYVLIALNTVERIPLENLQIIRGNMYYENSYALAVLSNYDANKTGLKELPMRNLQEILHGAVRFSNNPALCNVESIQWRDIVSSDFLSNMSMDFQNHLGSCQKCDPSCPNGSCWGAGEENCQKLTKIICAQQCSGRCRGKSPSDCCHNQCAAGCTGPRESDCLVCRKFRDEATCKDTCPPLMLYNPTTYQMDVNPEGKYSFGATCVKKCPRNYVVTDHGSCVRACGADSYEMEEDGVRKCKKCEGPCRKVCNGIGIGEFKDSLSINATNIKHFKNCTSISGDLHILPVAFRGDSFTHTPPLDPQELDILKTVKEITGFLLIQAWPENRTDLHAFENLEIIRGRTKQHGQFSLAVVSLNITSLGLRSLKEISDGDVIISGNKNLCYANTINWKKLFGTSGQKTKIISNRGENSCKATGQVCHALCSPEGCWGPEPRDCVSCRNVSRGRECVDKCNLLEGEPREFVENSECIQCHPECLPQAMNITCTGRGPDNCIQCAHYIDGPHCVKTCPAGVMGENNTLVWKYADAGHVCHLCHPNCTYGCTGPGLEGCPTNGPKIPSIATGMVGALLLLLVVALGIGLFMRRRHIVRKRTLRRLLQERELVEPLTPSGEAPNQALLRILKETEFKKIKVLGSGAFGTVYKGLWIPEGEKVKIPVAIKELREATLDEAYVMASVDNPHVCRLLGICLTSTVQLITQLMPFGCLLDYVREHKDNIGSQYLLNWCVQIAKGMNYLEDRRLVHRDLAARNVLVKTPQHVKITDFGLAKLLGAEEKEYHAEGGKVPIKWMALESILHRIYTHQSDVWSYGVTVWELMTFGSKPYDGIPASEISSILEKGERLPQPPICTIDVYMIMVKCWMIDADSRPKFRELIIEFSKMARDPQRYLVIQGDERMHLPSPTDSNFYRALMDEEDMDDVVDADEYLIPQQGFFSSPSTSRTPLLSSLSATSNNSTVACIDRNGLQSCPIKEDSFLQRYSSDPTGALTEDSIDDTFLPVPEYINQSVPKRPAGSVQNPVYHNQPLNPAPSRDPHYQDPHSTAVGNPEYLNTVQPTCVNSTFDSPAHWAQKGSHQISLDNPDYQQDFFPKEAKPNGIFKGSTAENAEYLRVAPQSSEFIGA

Row | SMILES | KINOMEscan: EGFR(S752-I759del) (panel of 442 kinases [1]) | KINOMEscan: GCN2(Kin.Dom.2,S808G) (panel of 442 kinases [2]) | KINOMEscan: MEK4 (panel of 442 kinases [3])
1 | COc1cc(C(=O)N2CCC(N3CCN(C)CC3)CC2)ccc1Nc1ncc2c(n1)N1CCc3cccc(c31)C(=O)N2C [Compound 24] | 80 | 79 | 
2 | CCOc1cc(C(=O)N2CCC(N3CCN(C)CC3)CC2)ccc1Nc1ncc2c(n1)N(C1CCCC1)c1ccccc1C(=O)N2C [Compound 26] | 86 | 95 | 100
3 | COc1cc(C(=O)N2CCC(N3CCN(C)CC3)CC2)ccc1Nc1ncc2c(n1)N(C1CCCC1)c1ccccc1C(=O)N2C [Compound 25, 11-cyclopentyl-2-((2-methoxy-4-(4-(4-methylpiperazin-1-yl)piperidine-1-carbonyl)phenyl)amino)-5-methyl-5H-benzo[e]pyrimido[5,4-b][1,4]diazepin-6(11H)-one] | 80 | 100 | 100
4 | COc1cc(C(=O)N2CCC(N3CCN(C)CC3)CC2)ccc1Nc1ncc2c(n1)N(C)c1ccccc1C(=O)N2C [15 (LRRK2-IN-1)] | 99 | 95 | 100
